Reference: patent US6197822A, “Neuropeptide antagonists” (Pfizer Inc., priority 2000, dated 2001)
pKi: −log10 of the molar value.

Biological target: T1, recombinant human NPY 5 receptors (Homo sapiens, UniProt Q15761)
T1 construct: made in house; host or cells: Sf9 insect cells, baculovirus-infected (membranes)
T1 sequence (Q15761 1-445): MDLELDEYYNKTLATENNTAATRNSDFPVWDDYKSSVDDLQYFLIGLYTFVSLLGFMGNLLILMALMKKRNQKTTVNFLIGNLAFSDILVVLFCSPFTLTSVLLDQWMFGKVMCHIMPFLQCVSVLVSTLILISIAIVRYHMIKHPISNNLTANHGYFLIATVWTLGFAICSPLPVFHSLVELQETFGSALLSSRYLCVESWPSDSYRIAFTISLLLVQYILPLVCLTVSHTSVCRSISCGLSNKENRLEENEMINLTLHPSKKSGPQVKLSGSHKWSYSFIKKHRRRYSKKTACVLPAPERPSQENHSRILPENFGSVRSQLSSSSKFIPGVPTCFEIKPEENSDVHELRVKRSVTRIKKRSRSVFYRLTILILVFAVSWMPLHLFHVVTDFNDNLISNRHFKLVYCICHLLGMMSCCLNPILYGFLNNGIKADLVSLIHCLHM
Assay: [125I]PYY binding at human NPY5 receptors expressed in Sf9 cells
Details: [125I]PYY(porcine) displacement, membranes of baculovirus-infected Sf9 cells; read-out: Ki (binding constants in the NPY5)
Method: [^125 I]PYY Binding at Human NPY Receptors Expressed in Sf9 Cells
Baculovirus-infected Sf9 cells expressing recombinant human NPY 5 receptors are harvested at 48 hours. At the time of harvest, cell pellets are resuspended in lysis buffer (20 mM Tris-HCl, pH 7.4, 5 mM EDTA, 0.5 μg/ml leupeptin, 2 μg/ml Aprotonin and […]) and homogenized using a Polytron (setting 3, 25-30 seconds). Homogenates are centrifuged at 4° C. for 5 minutes at 200 x g ([…]) to pellet the nuclei. The supernatant is collected into a fresh tube and centrifuged at 48,000 x g for 10 minutes. Pellets are washed once in lysis buffer and centrifuged. The final pellet is resuspended in PBS and stored in aliquots at -80° C. Purified membranes are washed using PBS and resuspended in binding buffer (50 mM Tris(HCl), pH 7.4, 5 mM KCl, 120 mM NaCl, 2 mM CaCl2, 1 mM MgCl2, 0.1% bovine serum albumin (BSA)). Membranes (20 μg/reaction tube) are added to polypropylene tubes containing 0.035 nM [^125 I]PYY(porcine), displacers ranging from 10^-12 M to 10^-5 M, and buffer to yield a final volume of 0.5 mL. Nonspecific binding is determined in the presence of 1 μM NPY(human) and accounts for 10% of total binding. Following a 2 hour incubation at room temperature, the reaction is terminated by rapid vacuum filtration. […] IC50 values were calculated with the non-linear curve fitting program RS/1 (SigmaPlot, Jandel).

pKi	SMILES
6.10	Cc1ccc(NC(=O)C(c2ccccc2)c2ccccc2)cc1 [--CH3]
8.10	CCN(CC)c1ccc(NC(=O)C(c2ccccc2)c2ccccc2)cc1 [--N(C2 H5)2]
